Source: ChEMBL document CHEMBL5465560, “Selectivity Literature for EUbOPEN Chemogenomic Library” (2024)

How the values were obtained:
[1] = target: Ribosomal protein S6 kinase alpha-6 (Homo sapiens, UniProt Q9UK32); assay: Selectivity interaction (Kinase panel (Eurofins, enzymatic assay)) EUB0000311b RPS6KA6
[2] = target: Tyrosine-protein kinase BTK (Homo sapiens, UniProt Q06187); assay: Selectivity interaction (Kinase panel (literature)) EUB0001199aCl BTK; conditions: at 1 µM
[3] = target: T1, Mitogen-activated protein kinase 13 (Homo sapiens) (UniProt O15264); assay: Selectivity interaction (KinomeScan (DiscoverX)) EUB0000607a MAPK13; conditions: at 10 µM
T1 sequence (whole entry): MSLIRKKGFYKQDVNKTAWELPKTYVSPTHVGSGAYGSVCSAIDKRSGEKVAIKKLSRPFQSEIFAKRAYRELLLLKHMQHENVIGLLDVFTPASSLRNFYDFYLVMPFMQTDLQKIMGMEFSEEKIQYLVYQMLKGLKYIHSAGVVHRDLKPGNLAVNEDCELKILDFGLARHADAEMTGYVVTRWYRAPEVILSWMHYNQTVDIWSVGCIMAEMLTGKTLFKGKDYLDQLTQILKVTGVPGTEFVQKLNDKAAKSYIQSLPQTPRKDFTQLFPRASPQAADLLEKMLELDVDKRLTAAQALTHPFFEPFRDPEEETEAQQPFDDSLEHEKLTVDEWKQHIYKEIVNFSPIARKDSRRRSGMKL

[4] = target: Dual specificity protein kinase CLK2 (Homo sapiens, UniProt P49760); conditions: at 10 µM
[5] = target: T2, Ephrin type-A receptor 1 (Homo sapiens) (UniProt P21709); assay: Selectivity interaction (ProQinase) EUB0000171b EPHA1
T2 sequence (whole entry): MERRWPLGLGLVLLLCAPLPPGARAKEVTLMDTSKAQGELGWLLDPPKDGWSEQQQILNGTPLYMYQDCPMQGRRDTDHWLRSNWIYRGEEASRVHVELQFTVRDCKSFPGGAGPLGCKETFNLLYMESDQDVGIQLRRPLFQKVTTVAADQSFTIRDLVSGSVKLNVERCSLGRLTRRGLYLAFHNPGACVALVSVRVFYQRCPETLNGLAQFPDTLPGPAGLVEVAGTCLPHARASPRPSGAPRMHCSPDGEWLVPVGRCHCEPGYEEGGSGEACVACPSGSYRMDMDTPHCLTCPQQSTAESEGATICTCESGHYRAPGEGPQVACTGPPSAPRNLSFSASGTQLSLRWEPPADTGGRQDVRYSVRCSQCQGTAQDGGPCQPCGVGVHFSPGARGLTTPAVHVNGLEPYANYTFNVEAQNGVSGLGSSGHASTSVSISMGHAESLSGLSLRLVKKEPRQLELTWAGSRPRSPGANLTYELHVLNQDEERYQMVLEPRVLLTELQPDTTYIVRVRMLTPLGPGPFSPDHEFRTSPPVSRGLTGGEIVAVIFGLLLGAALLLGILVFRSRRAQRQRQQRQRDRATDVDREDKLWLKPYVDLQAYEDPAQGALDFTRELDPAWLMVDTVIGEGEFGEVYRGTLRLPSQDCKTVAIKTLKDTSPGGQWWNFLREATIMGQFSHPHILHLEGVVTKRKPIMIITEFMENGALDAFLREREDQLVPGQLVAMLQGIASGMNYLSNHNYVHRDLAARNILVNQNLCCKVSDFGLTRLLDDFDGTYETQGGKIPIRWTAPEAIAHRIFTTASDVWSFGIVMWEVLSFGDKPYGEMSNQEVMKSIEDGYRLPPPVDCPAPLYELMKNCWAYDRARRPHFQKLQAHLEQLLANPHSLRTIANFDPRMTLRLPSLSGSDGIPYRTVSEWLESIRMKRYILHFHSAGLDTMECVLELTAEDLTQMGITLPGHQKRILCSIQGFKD

[6] = target: Protein kinase C theta type (Homo sapiens, UniProt Q04759); assay: Selectivity interaction (Kinase screening (Upstate/Millipore)) EUB0000604a PRKCQ
[7] = target: Serine/threonine-protein kinase MARK2 (Homo sapiens) (UniProt Q7KZI7); assay: Selectivity interaction (KinomeScan (DiscoverX)) EUB0000655a MARK2; conditions: at 10 µM
[8] = target: Activin receptor type-2B (Homo sapiens) (UniProt Q13705); assay: Selectivity interaction (KinomeScan (DiscoverX)) EUB0000045b ACVR2B
[9] = target: T3, Tyrosine-protein kinase ZAP-70 (Homo sapiens) (UniProt P43403); assay: Selectivity interaction (KinomeScan (DiscoverX)) EUB0001079a ZAP70; conditions: at 1 µM
T3 sequence (whole entry): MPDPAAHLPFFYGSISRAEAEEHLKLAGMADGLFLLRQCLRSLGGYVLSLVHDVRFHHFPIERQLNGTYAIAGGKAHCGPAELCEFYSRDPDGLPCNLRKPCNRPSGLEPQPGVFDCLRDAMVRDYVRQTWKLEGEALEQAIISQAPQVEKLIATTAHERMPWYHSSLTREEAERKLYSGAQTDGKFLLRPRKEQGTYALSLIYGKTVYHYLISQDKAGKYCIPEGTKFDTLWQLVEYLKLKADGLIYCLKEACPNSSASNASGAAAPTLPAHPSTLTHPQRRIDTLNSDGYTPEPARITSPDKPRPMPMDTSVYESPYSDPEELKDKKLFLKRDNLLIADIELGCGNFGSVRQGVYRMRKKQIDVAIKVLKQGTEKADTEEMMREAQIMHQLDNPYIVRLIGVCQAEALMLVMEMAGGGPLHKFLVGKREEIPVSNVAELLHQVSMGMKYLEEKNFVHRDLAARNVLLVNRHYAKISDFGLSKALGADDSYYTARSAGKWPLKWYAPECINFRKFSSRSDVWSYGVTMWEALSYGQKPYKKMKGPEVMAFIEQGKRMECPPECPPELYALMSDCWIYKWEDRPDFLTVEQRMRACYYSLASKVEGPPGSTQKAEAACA

[10] = system: Tyrosine-protein kinase ABL1 (Homo sapiens), P00519 [F317L]; assay: (§1) Selectivity interaction (KinomeScan (DiscoverX)) EUB0001079a ABL1; conditions: at 1 µM
[11] = system: Tyrosine-protein kinase ABL1 (Homo sapiens), P00519 [H396P]; assay: as §1; conditions: at 1 µM
[12] = system: Tyrosine-protein kinase ABL1 (Homo sapiens), P00519 [Q252H]; assay: as §1; conditions: at 1 µM
[13] = target: Tyrosine-protein kinase ABL1 (Homo sapiens, UniProt P00519); assay: as §1; conditions: at 1 µM
[14] = system: Tyrosine-protein kinase ABL1 (Homo sapiens), P00519 [M351T]; assay: as §1; conditions: at 1 µM
[15] = target: MAP kinase-activated protein kinase 3 (Homo sapiens) (UniProt Q16644); assay: Selectivity interaction (Kinase panel (KiNativ target engagement assay in Jurkat cells)) EUB0001635a MAPKAPK3; type: cell-based; conditions: Selectivity number of off-targets 0.0, Selectivity number of targets 233.0, Source Knowledge https://www.sciencedirect.com/science/article/pii/S2451945619300674?via%3Dihub, at 1 µM
[16] = target: T1, Mitogen-activated protein kinase 13 (Homo sapiens); conditions: at 10 µM

Chain of Activin receptor type-2B (Homo sapiens) (Q13705 whole entry): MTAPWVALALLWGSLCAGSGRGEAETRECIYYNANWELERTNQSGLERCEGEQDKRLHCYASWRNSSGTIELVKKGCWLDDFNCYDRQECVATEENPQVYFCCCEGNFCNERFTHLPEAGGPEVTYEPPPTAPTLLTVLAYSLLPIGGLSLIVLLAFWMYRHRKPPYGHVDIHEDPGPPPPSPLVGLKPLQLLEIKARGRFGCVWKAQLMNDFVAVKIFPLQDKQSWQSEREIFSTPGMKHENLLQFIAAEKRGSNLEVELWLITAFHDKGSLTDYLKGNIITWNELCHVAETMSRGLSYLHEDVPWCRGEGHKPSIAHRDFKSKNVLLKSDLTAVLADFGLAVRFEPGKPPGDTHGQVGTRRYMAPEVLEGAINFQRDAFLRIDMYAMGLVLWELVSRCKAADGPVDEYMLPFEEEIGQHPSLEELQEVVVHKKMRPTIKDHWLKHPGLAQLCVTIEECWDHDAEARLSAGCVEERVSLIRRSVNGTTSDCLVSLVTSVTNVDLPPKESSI
Chain of Protein kinase C theta type (Q04759 whole entry, looked up): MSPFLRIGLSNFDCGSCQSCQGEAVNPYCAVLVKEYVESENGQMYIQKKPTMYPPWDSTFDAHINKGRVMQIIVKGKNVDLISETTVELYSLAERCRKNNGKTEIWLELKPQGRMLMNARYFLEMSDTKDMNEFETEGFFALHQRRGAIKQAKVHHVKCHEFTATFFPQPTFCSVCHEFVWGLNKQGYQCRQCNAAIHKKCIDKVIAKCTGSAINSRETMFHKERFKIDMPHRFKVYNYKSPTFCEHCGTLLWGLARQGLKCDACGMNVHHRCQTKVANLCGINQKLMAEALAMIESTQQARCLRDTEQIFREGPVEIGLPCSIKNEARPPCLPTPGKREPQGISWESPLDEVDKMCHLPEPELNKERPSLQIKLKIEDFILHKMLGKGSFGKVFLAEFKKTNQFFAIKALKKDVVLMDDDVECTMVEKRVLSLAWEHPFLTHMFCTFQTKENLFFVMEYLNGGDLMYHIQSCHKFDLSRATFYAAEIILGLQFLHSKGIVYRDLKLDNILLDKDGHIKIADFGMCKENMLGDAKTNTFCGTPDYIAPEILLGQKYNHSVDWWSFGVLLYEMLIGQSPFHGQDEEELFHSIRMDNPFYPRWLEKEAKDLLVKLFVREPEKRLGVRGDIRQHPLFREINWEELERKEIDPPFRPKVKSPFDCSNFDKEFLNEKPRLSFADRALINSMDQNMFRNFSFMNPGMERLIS
Chain of Ribosomal protein S6 kinase alpha-6 (Q9UK32 whole entry): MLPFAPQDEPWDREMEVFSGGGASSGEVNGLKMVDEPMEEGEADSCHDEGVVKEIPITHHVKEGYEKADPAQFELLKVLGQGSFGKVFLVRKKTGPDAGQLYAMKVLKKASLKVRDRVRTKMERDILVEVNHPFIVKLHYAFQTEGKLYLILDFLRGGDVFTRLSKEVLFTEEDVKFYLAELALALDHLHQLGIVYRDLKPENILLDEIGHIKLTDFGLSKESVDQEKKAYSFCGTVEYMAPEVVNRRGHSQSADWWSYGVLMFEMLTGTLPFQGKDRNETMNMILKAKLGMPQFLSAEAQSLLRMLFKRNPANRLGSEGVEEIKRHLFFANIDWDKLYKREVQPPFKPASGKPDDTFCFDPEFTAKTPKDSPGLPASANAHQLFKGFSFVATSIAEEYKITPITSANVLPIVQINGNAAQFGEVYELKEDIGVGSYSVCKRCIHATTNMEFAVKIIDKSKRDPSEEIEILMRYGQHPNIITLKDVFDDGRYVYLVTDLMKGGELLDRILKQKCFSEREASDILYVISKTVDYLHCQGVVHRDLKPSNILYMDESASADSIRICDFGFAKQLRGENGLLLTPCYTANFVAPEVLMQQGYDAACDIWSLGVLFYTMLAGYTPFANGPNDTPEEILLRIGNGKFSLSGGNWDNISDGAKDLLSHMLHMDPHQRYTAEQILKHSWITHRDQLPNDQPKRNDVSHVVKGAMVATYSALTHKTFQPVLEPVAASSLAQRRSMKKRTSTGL
Chain of Serine/threonine-protein kinase MARK2 (Homo sapiens) (Q7KZI7 whole entry): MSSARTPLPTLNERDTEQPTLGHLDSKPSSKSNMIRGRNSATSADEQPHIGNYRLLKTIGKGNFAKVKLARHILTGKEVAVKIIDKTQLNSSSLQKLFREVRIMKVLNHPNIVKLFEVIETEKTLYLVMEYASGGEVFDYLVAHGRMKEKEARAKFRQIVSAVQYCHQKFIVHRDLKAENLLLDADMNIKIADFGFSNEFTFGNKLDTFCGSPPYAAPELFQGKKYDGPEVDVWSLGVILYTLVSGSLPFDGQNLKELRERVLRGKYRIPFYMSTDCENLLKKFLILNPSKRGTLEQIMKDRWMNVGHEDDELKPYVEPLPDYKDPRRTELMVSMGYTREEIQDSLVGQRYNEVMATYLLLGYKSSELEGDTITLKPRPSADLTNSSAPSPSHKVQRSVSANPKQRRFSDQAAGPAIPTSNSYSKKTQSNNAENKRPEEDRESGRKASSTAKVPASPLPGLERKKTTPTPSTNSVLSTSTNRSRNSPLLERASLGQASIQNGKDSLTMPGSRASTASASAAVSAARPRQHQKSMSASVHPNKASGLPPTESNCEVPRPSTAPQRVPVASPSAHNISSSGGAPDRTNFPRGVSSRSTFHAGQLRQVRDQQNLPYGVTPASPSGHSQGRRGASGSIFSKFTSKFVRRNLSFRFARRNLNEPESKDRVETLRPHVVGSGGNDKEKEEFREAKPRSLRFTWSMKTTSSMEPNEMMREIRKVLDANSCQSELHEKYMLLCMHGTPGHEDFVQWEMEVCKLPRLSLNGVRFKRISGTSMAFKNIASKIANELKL
Chain of MAP kinase-activated protein kinase 3 (Homo sapiens) (Q16644 whole entry, looked up): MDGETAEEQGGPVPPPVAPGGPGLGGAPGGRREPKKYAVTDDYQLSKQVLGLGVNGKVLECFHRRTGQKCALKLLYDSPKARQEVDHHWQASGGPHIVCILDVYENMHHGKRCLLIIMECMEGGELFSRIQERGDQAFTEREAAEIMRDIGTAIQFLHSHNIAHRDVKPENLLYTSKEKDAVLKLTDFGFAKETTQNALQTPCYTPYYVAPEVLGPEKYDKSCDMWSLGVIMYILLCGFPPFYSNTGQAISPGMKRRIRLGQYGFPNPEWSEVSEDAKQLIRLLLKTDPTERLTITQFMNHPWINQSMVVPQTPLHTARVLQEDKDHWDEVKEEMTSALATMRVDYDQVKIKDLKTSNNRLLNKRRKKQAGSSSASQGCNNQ
Chain of Tyrosine-protein kinase BTK (Q06187 whole entry): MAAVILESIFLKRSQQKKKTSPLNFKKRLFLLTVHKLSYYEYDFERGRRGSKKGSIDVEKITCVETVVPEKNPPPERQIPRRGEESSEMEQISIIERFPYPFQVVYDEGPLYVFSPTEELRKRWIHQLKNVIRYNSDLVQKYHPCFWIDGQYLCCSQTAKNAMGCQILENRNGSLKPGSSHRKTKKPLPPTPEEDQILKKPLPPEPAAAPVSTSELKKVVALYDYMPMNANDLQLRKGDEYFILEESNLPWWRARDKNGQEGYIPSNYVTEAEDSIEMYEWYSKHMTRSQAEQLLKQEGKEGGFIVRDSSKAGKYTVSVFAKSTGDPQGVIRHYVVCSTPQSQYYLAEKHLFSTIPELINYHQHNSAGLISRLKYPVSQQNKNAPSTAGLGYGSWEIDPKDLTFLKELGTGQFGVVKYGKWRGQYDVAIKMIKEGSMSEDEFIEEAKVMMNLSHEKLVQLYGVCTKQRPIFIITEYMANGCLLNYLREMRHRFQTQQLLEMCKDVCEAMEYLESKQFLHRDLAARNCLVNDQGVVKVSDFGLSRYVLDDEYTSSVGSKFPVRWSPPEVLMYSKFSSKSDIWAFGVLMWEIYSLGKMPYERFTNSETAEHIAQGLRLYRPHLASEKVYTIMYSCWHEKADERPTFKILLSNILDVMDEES
Chain of Dual specificity protein kinase CLK2 (P49760 whole entry, looked up): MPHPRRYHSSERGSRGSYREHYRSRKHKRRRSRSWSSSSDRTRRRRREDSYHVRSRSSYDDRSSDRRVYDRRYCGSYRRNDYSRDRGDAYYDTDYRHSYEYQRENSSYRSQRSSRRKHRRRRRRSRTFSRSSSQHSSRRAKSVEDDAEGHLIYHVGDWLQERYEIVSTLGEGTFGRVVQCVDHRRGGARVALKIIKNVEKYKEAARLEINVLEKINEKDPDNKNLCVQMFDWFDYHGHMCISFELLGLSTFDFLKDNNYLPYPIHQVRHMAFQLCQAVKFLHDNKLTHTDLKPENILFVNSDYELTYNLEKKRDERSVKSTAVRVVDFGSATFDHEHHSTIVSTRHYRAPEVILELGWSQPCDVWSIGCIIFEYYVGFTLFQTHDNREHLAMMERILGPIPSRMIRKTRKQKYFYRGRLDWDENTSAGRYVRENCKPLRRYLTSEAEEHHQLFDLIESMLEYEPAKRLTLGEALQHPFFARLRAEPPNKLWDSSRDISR

## CCc1ccccc1C(=O)Nc1n[nH]c2c(C)c(F)c(C3C(C#N)=C(C)N(C)C(C)=C3C#N)cc12 [BAY-3827]
[1]
  IC50: 36 nM

## CN1Cc2nccc(-c3cn(C)nc3-c3ccc(F)cc3)c2C1=O
[2]
  % of inhibition: 2%

## CNC(=O)Nc1ccc(-c2nc(N3CC4CCC(C3)O4)c3cnn(C4CCC5(CC4)OCCO5)c3n2)cc1
[3]
  % of control: 16%

## CCN(CC)CCCCNc1ncc2cc(-c3cc(OC)cc(OC)c3)c(NC(=O)NC(C)(C)C)nc2n1
[4]
  % of control: 100%

## C=CC(=O)Nc1cccc(C(=O)Nc2ccc(Nc3cc(-c4[nH]c(SC)nc4C)ccn3)cc2)c1
[5]; at 1 µM
  % of control: 90%
[5]; at 5 µM
  % of control: 63%

## Cc1cnc(Nc2ccc(F)cc2Cl)nc1-c1c[nH]c(C(=O)N[C@H](CO)c2cccc(Cl)c2)c1
[6]
  % of inhibition: 17%

## CN(C)CCOc1ccc(-c2nc(-c3ccncc3)c(-c3ccc4c(c3)CC/C4=N\O)[nH]2)cc1
[7]
  % of control: 100%

## C=CC(=O)Nc1cc(-n2c(=O)ccc3cnc4ccc(-c5ccc(NS(C)(=O)=O)cc5)cc4c32)ccc1C
[8]; at 1 µM
  % of control: 100%
[8]; at 10 µM
  % of control: 84%

## Nc1cnc(N2CCc3cc(S(=O)(=O)Nc4c(F)cc(Cl)cc4F)cc(N4CCCC4=O)c32)nc1 [TP-020n]
[9]
  % of control: 85%
[10]
  % of control: 99%
[11]
  % of control: 94%
[12]
  % of control: 100%
[13]
  % of control: 100%
[14]
  % of control: 100%

## C=CC(=O)Nc1ccc(C(=O)Nc2[nH]nc3c2CN(C(=O)N[C@H](CN(C)C)c2ccccc2)C3(C)C)cc1
[15]
  % of engagement: -9.9%

## Cc1cc([C@@H](C)Nc2ccccc2C(=O)O)c2nc(N3CCOCC3)cc(=O)n2c1 [AZD-6482]
[16]
  % of control: 87%
